According to patent US20070197646A1, “SUBSTITUTED TARAXASTANES USEFUL FOR TREATING VIRAL INFECTIONS” (ACHILLION PHARMACEUTICALS, INC., priority 2006, published 2007):

Key:
HIV-1 = assay: Inhibition of early phase virus replication (MAGI cell β-gal indicator assay); type: cell-based; conditions: Human immunodeficiency virus 1; MAGI cells, MOI of 0.00125
Protocol: (§1) Virology studies are preformed to assess the antiviral potency substituted heterobetulinic acids. The antiviral effect of these compounds is evaluated by parallel studies of inhibition of viral replication and cell viability. Viruses and cells for use in these assays may be obtained from the NIH AIDS Reagent Program.
The effect of compounds on the early phase virus replication, from virus particle attachment through early gene, Tat expression, are evaluated using a CD4-positive LTR-β-galatosidase-expressing HeLa (MAGI) cell indicator line. This assay, described previously to assess the level of β-gal expression, has been modified and adopted in our laboratory. β-gal levels are quantified by photon detection assay, with virus infected cells that are not treated with a capsid formation inhibitor giving the highest level of expression. […]
MAGI Cells are trypsinization and counted using the trepan blue exclusion method, and resuspended at a pre-determined concentration (usually 2×10^4 cells/well) in 10% FBS complete RPMI 1640. […]
The viruses are diluted to a pre-determined MOI/well, typically 0.01 to 1, in Pre-MAGI media plus 20 μg/well DEAE-dextran. […]
Plates are incubated at room temperature (25° C.) for 60-90 minutes or until constant light emission is reached. Plate(s) are read in a luminometer and measured for 0.1-1.0 sec/well.

mock-infected cells = assay: Assessment of cytotoxicity (cell viability in parallel); type: cell-based
Protocol: as §1
Plates are incubated at 37° C. in a humidified CO2 incubator for six days. Following incubation of the HIV-1 infected cells with the compound cell viability is assessed using a calorimetric assay of metabolic activity, such as an XTT, MTT or WST-1 assay, or a BrdU incorporation assay. Cytotoxicity of the compound is determined in parallel by measurement of the viability of mock-infected cells treated with the compound. Uninfected cells without compounds are used for a 100% viability control. Infected cells to which no compound is added provide a value for 100% of cell death due to viral infection. The number of surviving or viable cells is quantified by a tetrazolium-based colorimetric method using the CellTiter96 reagent (Promega, Madison, Wis.).

CC1=CC[C@]2(C(=O)O)CC[C@]3(C)[C@H](CC[C@@H]4[C@@]5(C)CCC(OC(=O)CC(C)(C)C(=O)O)C(C)(C)[C@@H]5CC[C@]43C)[C@H]2[C@@H]1C (stereo partly shown) [Compound 11]
EC50 (HIV-1): < 2000 nM
cytotoxicity (mock-infected cells): Neither compound was cytotoxic

CC1=CC[C@]2(CO)CC[C@]3(C)[C@H](CC[C@@H]4[C@@]5(C)CC[C@H](OC(=O)CC(C)(C)C(=O)O)C(C)(C)[C@@H]5CC[C@]43C)[C@H]2[C@@H]1C [Compound 12]
EC50 (HIV-1): < 100 nM
cytotoxicity (mock-infected cells): Neither compound was cytotoxic
